≈ marks a conversion by molar mass, not a printed value. Each block holds one compound with its values, some of them ahead of it.
Tests used:
Pseudomonas aeruginosa [1] = assay: Antibacterial activity against Pseudomonas aeruginosa ATCC 12454 incubated for 24 hrs by tube dilution method; format: functional
Staphylococcus aureus [2] = assay: Antibacterial activity against Staphylococcus aureus ATCC 25923 incubated for 24 hrs by tube dilution method; format: functional
Escherichia coli [3] = assay: Antibacterial activity against Escherichia coli ATCC 25922 incubated for 24 hrs by tube dilution method; format: functional
Klebsiella pneumoniae [4] = assay: Antibacterial activity against Klebsiella pneumoniae ATCC 15380 incubated for 24 hrs by tube dilution method; format: functional
Streptococcus pyogenes = assay: Antibacterial activity against Streptococcus pyogenes ATCC 35552 incubated for 24 hrs by tube dilution method; format: functional
Bacillus cereus [5] = assay: Antibacterial activity against Bacillus cereus ATCC 10876 incubated for 24 hrs by microdilution method; format: functional
Aspergillus brasiliensis = assay: Antifungal activity against Aspergillus brasiliensis ATCC 16404 incubated for 24 hrs by microdilution method; format: functional
Candida albicans = assay: Antifungal activity against Candida albicans ATCC 50193 incubated for 24 hrs by microdilution method; format: functional
Proteus mirabilis = assay: Antibacterial activity against Proteus mirabilis ATCC 35659 incubated for 24 hrs by microdilution method; format: functional
Staphylococcus aureus [6] = assay: Antibacterial activity against Staphylococcus aureus ATCC 25923 incubated for 24 hrs by microdilution method; format: functional
Pseudomonas aeruginosa [7] = assay: Antibacterial activity against Pseudomonas aeruginosa ATCC 27853 incubated for 24 hrs by microdilution method; format: functional
Escherichia coli [8] = assay: Antibacterial activity against Escherichia coli ATCC 25922 incubated for 24 hrs by microdilution method; format: functional
Enterococcus faecalis [9] = assay: Antibacterial activity against Enterococcus faecalis ATCC 29212 incubated for 24 hrs by microdilution method; format: functional
Streptococcus pneumoniae = assay: Antibacterial activity against Streptococcus pneumoniae RCMB 010010 by broth dilution method; format: functional
Escherichia coli [10] = assay: Antibacterial activity against Escherichia coli RCMB 010052 by broth dilution method; format: functional
Pseudomonas aeruginosa [11] = assay: Antibacterial activity against Pseudomonas aeruginosa RCMB 010043 by broth dilution method; format: functional
Klebsiella pneumoniae [12] = assay: Antibacterial activity against Klebsiella pneumonia RCMB 010058 by broth dilution method; format: functional
Staphylococcus aureus [13] = assay: Antibacterial activity against Staphylococcus aureus RCMB 010025 by broth dilution method; format: functional
Bacillus subtilis = assay: Antibacterial activity against Bacillus subtilis RCMB 010067 by broth dilution method; format: functional
Pseudomonas aeruginosa [14] = assay: Antibacterial activity against Pseudomonas aeruginosa 12 incubated for 20 hrs by agar dilution method; format: functional
Escherichia coli [15] = assay: Antibacterial activity against Escherichia coli NIHJ JC2 incubated for 20 hrs by agar dilution method; format: functional
Staphylococcus aureus [16] = assay: Antibacterial activity against Staphylococcus aureus 209P JC1 incubated for 20 hrs by agar dilution method; format: functional
Klebsiella pneumoniae [17] = assay: Antibacterial activity against Klebsiella pneumoniae ATCC 700603 incubated overnight by broth dilution technique; format: functional, organism-based
Pseudomonas aeruginosa [18] = assay: Antibacterial activity against Pseudomonas aeruginosa MTCC 2453 incubated overnight by broth dilution technique; format: functional, organism-based
Enterococcus faecalis [19] = assay: Antibacterial activity against Enterococcus faecalis MTCC 439 incubated overnight by broth dilution technique; format: functional, organism-based
Salmonella enterica = assay: Antibacterial activity against Salmonella enterica MTCC 3224 incubated overnight by broth dilution technique; format: functional, organism-based
Escherichia coli [20] = assay: Antibacterial activity against Escherichia coli ATCC 25922 incubated overnight by broth dilution technique; format: functional, organism-based
[21] = test system: Sphingomonas paucimobilis; assay: Antibacterial activity against Flavobacterium devorans ATCC 10829 incubated for 24 hrs; format: functional
Bacillus cereus [22] = assay: Antibacterial activity against Bacillus cereus ATCC 6630 incubated for 24 hrs; format: functional
Penicillium chrysogenum = assay: Antifungal activity against Penicillium chrysogenum NCIM 723 incubated for 48 hrs; format: functional
Aspergillus niger = assay: Antifungal activity against Aspergillus niger NCIM 1196 incubated for 48 hrs; format: functional
Curvularia lunata = assay: Antifungal activity against Curvularia lunata NCIM 1131 incubated for 48 hrs; format: functional
Pseudomonas fluorescens = assay: Antibacterial activity against Pseudomonas fluorescens NCIM 2173 incubated for 24 hrs; format: functional
Escherichia coli [23] = assay: Antibacterial activity against Escherichia coli NCIM 2256 incubated for 24 hrs; format: functional
Micrococcus luteus = assay: Antibacterial activity against Micrococcus Luteus ATCC 398 incubated for 24 hrs; format: functional
Staphylococcus aureus [24] = assay: Antibacterial activity against Staphylococcus aureus ATCC 29737 incubated for 24 hrs; format: functional

MIC (Pseudomonas aeruginosa [1]): 6.5 µg/mL (≈ 14 µM)
MIC (Staphylococcus aureus [2]): 6.5 µg/mL (≈ 14 µM)
MIC (Escherichia coli [3]): 6.5 µg/mL (≈ 14 µM)
MIC (Klebsiella pneumoniae [4]): 6.5 µg/mL (≈ 14 µM)
MIC (Streptococcus pyogenes): 6.5 µg/mL (≈ 14 µM)
SMILES: COc1ccc(Cn2cc(COc3ccccc3-c3nn(-c4ccccc4)cc3C=O)nn2)cc1

MIC (Pseudomonas aeruginosa [1]): 5.5 µg/mL (≈ 11.9 µM)
MIC (Staphylococcus aureus [2]): 5.5 µg/mL (≈ 11.9 µM)
MIC (Escherichia coli [3]): 5.5 µg/mL (≈ 11.9 µM)
MIC (Klebsiella pneumoniae [4]): 5.5 µg/mL (≈ 11.9 µM)
MIC (Streptococcus pyogenes): 5.5 µg/mL (≈ 11.9 µM)
SMILES: Cc1cc(C)cc(Cn2cc(COc3ccccc3-c3nn(-c4ccccc4)cc3C=O)nn2)c1

MIC (Pseudomonas aeruginosa [14]): 0.05 µg/mL (≈ 0.135 µM)
MIC (Escherichia coli [15]): 0.05 µg/mL (≈ 0.135 µM)
MIC (Staphylococcus aureus [16]): 0.05 µg/mL (≈ 0.135 µM)
SMILES: O=C(O)c1cn(C2CC2)c2c(F)c(N3CCCCC3)c3nn[nH]c3c2c1=O

MIC (Streptococcus pneumoniae): 31.2 µg/mL (≈ 63 µM)
MIC (Escherichia coli [10]): 31.2 µg/mL (≈ 63 µM)
MIC (Pseudomonas aeruginosa [11]): 31.2 µg/mL (≈ 63 µM)
MIC (Klebsiella pneumoniae [12]): 31.2 µg/mL (≈ 63 µM)
MIC (Staphylococcus aureus [13]): 31.2 µg/mL (≈ 63 µM)
MIC (Bacillus subtilis): 31.2 µg/mL (≈ 63 µM)
SMILES: CCOCSc1nnc(-c2nnn(-c3ccccc3Cl)c2-c2nnc(SCOCC)o2)o1

MIC (Streptococcus pneumoniae): 4 µg/mL (≈ 8.06 µM)
MIC (Escherichia coli [10]): 4 µg/mL (≈ 8.06 µM)
MIC (Pseudomonas aeruginosa [11]): 4 µg/mL (≈ 8.06 µM)
MIC (Klebsiella pneumoniae [12]): 4 µg/mL (≈ 8.06 µM)
MIC (Staphylococcus aureus [13]): 4 µg/mL (≈ 8.06 µM)
MIC (Bacillus subtilis): 4 µg/mL (≈ 8.06 µM)
SMILES: OCCCSc1nnc(-c2nnn(-c3ccccc3Cl)c2-c2nnc(SCCCO)o2)o1

MIC (Pseudomonas aeruginosa [1]): 5.5 µg/mL (≈ 12.6 µM)
MIC (Staphylococcus aureus [2]): 5.5 µg/mL (≈ 12.6 µM)
MIC (Escherichia coli [3]): 5.5 µg/mL (≈ 12.6 µM)
MIC (Klebsiella pneumoniae [4]): 5.5 µg/mL (≈ 12.6 µM)
MIC (Streptococcus pyogenes): 5.5 µg/mL (≈ 12.6 µM)
SMILES: O=Cc1cn(-c2ccccc2)nc1-c1ccccc1OCc1cn(Cc2ccccc2)nn1

More lines, now with the values behind:

SMILES: CCCCCCCCCCn1nnc(-c2n[nH]c(=S)n2N)c1-c1n[nH]c(=S)n1N
MIC (Bacillus cereus [5]): 1 µg/mL (≈ 2.29 µM)
MIC (Aspergillus brasiliensis): 1 µg/mL (≈ 2.29 µM)
MIC (Candida albicans): 1 µg/mL (≈ 2.29 µM)
MIC (Proteus mirabilis): 1 µg/mL (≈ 2.29 µM)
MIC (Staphylococcus aureus [6]): 1 µg/mL (≈ 2.29 µM)
MIC (Pseudomonas aeruginosa [7]): 1 µg/mL (≈ 2.29 µM)
MIC (Escherichia coli [8]): 1 µg/mL (≈ 2.29 µM)
MIC (Enterococcus faecalis [9]): 1 µg/mL (≈ 2.29 µM)

SMILES: CC(=O)OCCSc1nnc(-c2nnn(-c3ccccc3Cl)c2-c2nnc(SCCOC(C)=O)o2)o1
MIC (Streptococcus pneumoniae): 31.2 µg/mL (≈ 56.6 µM)
MIC (Escherichia coli [10]): 31.2 µg/mL (≈ 56.6 µM)
MIC (Pseudomonas aeruginosa [11]): 31.2 µg/mL (≈ 56.6 µM)
MIC (Klebsiella pneumoniae [12]): 31.2 µg/mL (≈ 56.6 µM)
MIC (Staphylococcus aureus [13]): 31.2 µg/mL (≈ 56.6 µM)
MIC (Bacillus subtilis): 31.2 µg/mL (≈ 56.6 µM)

SMILES: NC1CCN(c2c(Cl)c3c(c(=O)c(C(=O)O)cn3C3CC3)c3[nH]nnc23)C1 (stereo not drawn)
MIC (Pseudomonas aeruginosa [14]): 0.05 µg/mL (≈ 0.129 µM)
MIC (Escherichia coli [15]): 0.05 µg/mL (≈ 0.129 µM)
MIC (Staphylococcus aureus [16]): 0.05 µg/mL (≈ 0.129 µM)

SMILES: Cc1ccc(OCc2cn(Cc3ccccc3)nn2)c(-c2nn(-c3ccccc3)cc2C=O)c1
MIC (Pseudomonas aeruginosa [1]): 5.5 µg/mL (≈ 12.2 µM)
MIC (Staphylococcus aureus [2]): 5.5 µg/mL (≈ 12.2 µM)
MIC (Escherichia coli [3]): 5.5 µg/mL (≈ 12.2 µM)
MIC (Klebsiella pneumoniae [4]): 5.5 µg/mL (≈ 12.2 µM)
MIC (Streptococcus pyogenes): 5.5 µg/mL (≈ 12.2 µM)

SMILES: C[C@@H]1CN(c2c(F)c(N)c3c(=O)c(C(=O)O)cn(C4CC4)c3c2F)C[C@H](C)N1 [SPARFLOXACIN]
MIC (Pseudomonas aeruginosa [14]): 0.0125 µg/mL (≈ 0.0319 µM)
MIC (Escherichia coli [15]): 0.0125 µg/mL (≈ 0.0319 µM)
MIC (Staphylococcus aureus [16]): 0.0125 µg/mL (≈ 0.0319 µM)

SMILES: O=C(O)c1ccc(-n2cc(COc3cccc4cccnc34)nn2)cc1
IC50 (Klebsiella pneumoniae [17]): 106 µg/mL (≈ 306 µM)
IC50 (Pseudomonas aeruginosa [18]): 106 µg/mL (≈ 306 µM)
IC50 (Enterococcus faecalis [19]): 106 µg/mL (≈ 306 µM)
IC50 (Salmonella enterica): 106 µg/mL (≈ 306 µM)
IC50 (Escherichia coli [20]): 106 µg/mL (≈ 306 µM)

SMILES: Cc1cc(OCc2cn(Cc3cccc([N+](=O)[O-])c3)nn2)cc2oc(=O)ccc12
MIC [21]: 2 µg/mL (≈ 5.1 µM)
MIC (Bacillus cereus [22]): 2 µg/mL (≈ 5.1 µM)
MIC (Penicillium chrysogenum): 2 µg/mL (≈ 5.1 µM)
MIC (Aspergillus niger): 2 µg/mL (≈ 5.1 µM)
MIC (Curvularia lunata): 2 µg/mL (≈ 5.1 µM)
MIC (Pseudomonas fluorescens): 2 µg/mL (≈ 5.1 µM)
MIC (Escherichia coli [23]): 2 µg/mL (≈ 5.1 µM)
MIC (Micrococcus luteus): 2 µg/mL (≈ 5.1 µM)
MIC (Staphylococcus aureus [24]): 2 µg/mL (≈ 5.1 µM)

SMILES: CC1CCN(c2cc3c(c(=O)c(C(=O)O)cn3C3CC3)c3[nH]nnc23)CC1
MIC (Pseudomonas aeruginosa [14]): 0.05 µg/mL (≈ 0.136 µM)
MIC (Escherichia coli [15]): 0.05 µg/mL (≈ 0.136 µM)
MIC (Staphylococcus aureus [16]): 0.05 µg/mL (≈ 0.136 µM)

SMILES: O=Cc1cn(-c2ccccc2)nc1-c1ccccc1OCc1cn(Cc2ccc(C(=O)O)cc2)nn1
MIC (Pseudomonas aeruginosa [1]): 5.5 µg/mL (≈ 11.5 µM)
MIC (Staphylococcus aureus [2]): 5.5 µg/mL (≈ 11.5 µM)
MIC (Escherichia coli [3]): 5.5 µg/mL (≈ 11.5 µM)
MIC (Klebsiella pneumoniae [4]): 5.5 µg/mL (≈ 11.5 µM)
MIC (Streptococcus pyogenes): 5.5 µg/mL (≈ 11.5 µM)

SMILES: O=c1cc(OCc2cn(Cc3cccc([N+](=O)[O-])c3)nn2)c2ccccc2o1
MIC [21]: 2 µg/mL (≈ 5.29 µM)
MIC (Bacillus cereus [22]): 2 µg/mL (≈ 5.29 µM)
MIC (Penicillium chrysogenum): 2 µg/mL (≈ 5.29 µM)
MIC (Aspergillus niger): 2 µg/mL (≈ 5.29 µM)
MIC (Curvularia lunata): 2 µg/mL (≈ 5.29 µM)
MIC (Pseudomonas fluorescens): 2 µg/mL (≈ 5.29 µM)
MIC (Escherichia coli [23]): 2 µg/mL (≈ 5.29 µM)
MIC (Micrococcus luteus): 2 µg/mL (≈ 5.29 µM)
MIC (Staphylococcus aureus [24]): 2 µg/mL (≈ 5.29 µM)

SMILES: NC1CCN(c2c(F)c3c(c(=O)c(C(=O)O)cn3C3CC3)c3[nH]nnc23)C1 (stereo not drawn)
MIC (Pseudomonas aeruginosa [14]): 0.05 µg/mL (≈ 0.134 µM)
MIC (Escherichia coli [15]): 0.05 µg/mL (≈ 0.134 µM)
MIC (Staphylococcus aureus [16]): 0.05 µg/mL (≈ 0.134 µM)

SMILES: O=c1cc(OCc2cn(Cc3ccc([N+](=O)[O-])cc3)nn2)c2ccccc2o1
MIC [21]: 2 µg/mL (≈ 5.29 µM)
MIC (Bacillus cereus [22]): 2 µg/mL (≈ 5.29 µM)
MIC (Penicillium chrysogenum): 2 µg/mL (≈ 5.29 µM)
MIC (Aspergillus niger): 2 µg/mL (≈ 5.29 µM)
MIC (Curvularia lunata): 2 µg/mL (≈ 5.29 µM)
MIC (Pseudomonas fluorescens): 2 µg/mL (≈ 5.29 µM)
MIC (Escherichia coli [23]): 2 µg/mL (≈ 5.29 µM)
MIC (Micrococcus luteus): 2 µg/mL (≈ 5.29 µM)
MIC (Staphylococcus aureus [24]): 2 µg/mL (≈ 5.29 µM)
